Consider 2 molecules from PMC12044245 (Emerging Infectious Diseases, 2025).

Usually IC50 stands for the concentration at which inhibition is half-maximal.

Experiment [1] has as its target NA (neuraminidase) of A/Yamagata/103/2024 (Influenza A virus, UniProt C3W5S3). It is filed as biochemical.
The target in experiment [2] is NA (neuraminidase) of A/Yamagata/333/2023 (Influenza A virus, UniProt C3W5S3).
Experiment [3] relates to recombinant A/WSN/33(H1N1) with PA I38N substitution. Particulars: ref [3],[9]; cited from earlier work.
For experiment [4], the system named is recombinant A/Victoria/3/75(H3N2) with PA I38N substitution. Particulars: ref [3],[9]; cited from earlier work.

On to `CCC(CC)[C@H](NC(C)=O)[C@@H]1[C@H](O)[C@@H](C(=O)O)C[C@H]1N=C(N)N` [Peramivir, peramivir], for which the figures for the half-maximal inhibitory concentration (IC50) in experiment [1] and in experiment [2] were 0.11 nM and 0.08 nM, respectively.

For the molecule `O=C1c2c(O)c(=O)ccn2N([C@@H]2c3ccccc3SCc3c2ccc(F)c3F)[C@@H]2COCCN12` [Baloxavir, baloxavir acid], the “fold reduction in baloxavir susceptibility conferred by PA I38N substitution” value in experiment [3] is listed as 24 fold; in experiment [4] it was 10 fold.
